# Experimental data from ChEMBL document CHEMBL4184116, “New butenolide derivatives from the marine sponge-derived fungus Aspergillus terreus” (Bioorg Med Chem Lett, 2018).
# Assays:
# Alpha glucosidase = Alpha glucosidase (Homo sapiens, UniProt O43451+P10253+P14410+Q2M2H8); assay: Inhibition of alpha-glucosidase (unknown origin) using p-nitro-phenyl-alpha-D-glucopyranoside as substrate preincubated for 5 mins with substrate followed by enzyme addition measure after 15 mins by spectrophotometric method; format: protein assay
# [1] = Antioxidant activity assessed as DPPH radical scavenging activity incubated for 30 mins under dark condition by spectrophotometric analysis; format: functional
# [2] = Antioxidant activity assessed as DPPH radical scavenging activity incubated for 30 mins under dark condition; format: functional
SMILES,IC50 (Alpha glucosidase),IC50 [1],IC50 [2]
COC(=O)[C@]1(Cc2ccc(O)cc2)OC(=O)C(O)=C1c1ccc(O)cc1,85.13 µM,86 µM,
COC(=O)[C@]1(Cc2ccc3c(c2)CCC(C)(C)O3)OC(=O)C(O)=C1c1ccc(O)cc1,47.33 µM,97 µM,
COC(=O)[C@@]1(O)OC(=O)C(Cc2ccc3c(c2)CCC(C)(C)O3)=C1c1ccc(O)cc1,10.3 µM,> 200 µM,
CC1(C)CCc2cc(CC3=C(c4ccc(O)cc4)[C@@](O)(C(=O)O)OC3=O)ccc2O1,7.63 µM,> 200 µM,
CC1(C)CCc2cc(CC3OC(=O)C(O)=C3c3ccc(O)cc3)ccc2O1 (configuration not stated),11.65 µM,90 µM,
CO[C@@H]1OC(=O)C(Cc2ccc(O)c(CC=C(C)C)c2)=C1c1ccc(O)cc1,9.98 µM,> 200 µM,
COC(=O)[C@]1(Cc2ccc(O)c(CC=C(C)C)c2)OC(=O)C(OC)=C1c1ccc(O)cc1,,,125 µM
COC(=O)[C@]1(Cc2ccc3c(c2)C[C@H](O)C(C)(C)O3)OC(=O)C(OC)=C1c1ccc(O)cc1,,,> 500 µM
COC(=O)[C@]1(Cc2ccc3c(c2)C[C@@H](O)C(C)(C)O3)OC(=O)C(O)=C1c1ccc(O)cc1,110.27 µM,135 µM,
CC1(C)CCc2cc(CC3=C(c4ccc(O)cc4)C(O)OC3=O)ccc2O1 (configuration not stated),13.36 µM,> 200 µM,
CO[C@H]1OC(=O)C(Cc2ccc(O)c(CC=C(C)C)c2)=C1c1ccc(O)cc1,8.65 µM,> 200 µM,
COC(=O)[C@]1(Cc2ccc(O)c(CC=C(C)C)c2)OC(=O)C(O)=C1c1ccc(O)cc1,14.18 µM,38 µM,
CC(=O)N[C@@H](CS)C(=O)O [ACETYLCYSTEINE],,85 µM,
O=C1O/C(=C\c2ccc(O)cc2)C(O)=C1c1ccc(O)cc1 [ASPULVINONE E],> 400 µM,106 µM,
COC(=O)[C@]1(Cc2ccc3c(c2)C[C@H](C(C)(C)O)O3)OC(=O)C(O)=C1c1ccc(O)cc1 [BUTYROLACTONE IV],> 400 µM,129 µM,
